Reference: paper PMC11997999, “Uncovering α-Selectivity for Liver X Receptor Agonists for Lipotoxic Cancer Therapies” (Journal of Medicinal Chemistry, 2025)

How the values were obtained:
LXRα LBD (GST) = biological target: T1, LXRα LBD (GST) (Homo sapiens, UniProt Q13133); assay: Time-resolved LXR FRET assay (LanthaScreen TR-FRET LXRα Coactivator Assay Kit); assay type: biochemical; conditions: 5 nM LXRα LBD (GST), read after 6 h; R^2 of fit given; read-out: TR-FRET activity (EC50) LXRα
T1 construct: 5 nM LXRα LBD (GST); 10 nM LXRβ LBD (GST); purchased ThermoFisher Scientific PV4655
T1 sequence (Q13133 209-447 limits assumed): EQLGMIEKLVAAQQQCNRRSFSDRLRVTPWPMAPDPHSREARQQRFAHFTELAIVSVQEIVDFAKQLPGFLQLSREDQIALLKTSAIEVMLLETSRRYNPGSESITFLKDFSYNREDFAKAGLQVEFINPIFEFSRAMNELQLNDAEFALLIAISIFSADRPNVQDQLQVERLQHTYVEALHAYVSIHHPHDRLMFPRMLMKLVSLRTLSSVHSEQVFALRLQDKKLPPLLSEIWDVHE
Protocol: (§1) The biochemical TR-FRET assays were performed using the LanthaScreen TR-FRET LXRα Coactivator Assay Kit, goat (ThermoFisher Scientific, PV4655), and the LanthaScreen TR-FRET LXRβ assay kit, goat (ThermoFisher Scientific, PV4658), according to the manufacturer’s instructions using the following concentrations: 5 nM LXRα LBD (GST); 10 nM LXRβ LBD (GST); 500 nM fluorescein-TRAP220/DRIP-2; 200 nM fluorescein-D22; 10 nM Tb anti-GST antibody. The TR-FRET signals were measured after 6 h using a TECAN SPARK multimode microplate reader with the following settings: first excitation wavelength: 360 nm (bandwidth 35 nm), first emission wavelength: 485 nm (bandwidth 20 nm); second excitation wavelength: 360 nm (bandwidth 35 nm), second emission wavelength: 535 nm (bandwidth 25 nm); integration time: 200 μs; lag time: 100 μs; settle time: 0 ms.

LXRβ LBD (GST) = biological target: T2, LXRβ LBD (GST) (Homo sapiens, UniProt P55055); assay: Time-resolved LXR FRET assay (LanthaScreen TR-FRET LXRβ assay kit); assay type: biochemical; conditions: 10 nM LXRβ LBD (GST), read after 6 h; R^2 of fit given; read-out: TR-FRET activity (EC50) LXRβ
T2 construct: 5 nM LXRα LBD (GST); 10 nM LXRβ LBD (GST); purchased ThermoFisher Scientific PV4658
T2 sequence (P55055 222-460 limits assumed): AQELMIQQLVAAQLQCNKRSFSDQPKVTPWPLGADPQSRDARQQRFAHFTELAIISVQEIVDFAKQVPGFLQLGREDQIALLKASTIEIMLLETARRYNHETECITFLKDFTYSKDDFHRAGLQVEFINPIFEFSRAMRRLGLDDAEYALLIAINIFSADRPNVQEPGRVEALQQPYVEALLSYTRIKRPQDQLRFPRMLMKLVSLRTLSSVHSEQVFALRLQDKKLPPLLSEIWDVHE
Protocol: as §1

Hep3B cells = assay: Cell viability analysis in Hep3B cells (CellTiter-Glo); assay type: cell-based, human; conditions: 5d
Protocol: To determine the therapeutic efficacy of compound 40 in HCC cells, we next tested its effect on Hep3B cell viability in combination with the DFG-out Raf inhibitor sorafenib (2 μM).
(§2) For organoid treatment studies, digestion of organoids was performed using TrypLE Express (Gibco) supplemented with 100 μg/mL DNaseI and 10.5 μM Y-27632 dihydrochloride (Invitrogen) at 37 °C, and afterward, single-cells were plated in white 96 well plates (Sarstedt) in a mixture of 10% Matrigel (Growth Factor Reduced (GFR) Matrigel, Corning) in culture medium. Cell viability was determined after 5 days of treatment using the CellTiter-Glo 3D Cell Viability Assay Kit (Promega). Cell viability of Hep3B, AML12, and BNL CL.2 cells was determined after 5 days of treatment in white 96 well plates (Sarstedt) using the CellTiter-Glo 2.0 Cell Viability Assay Kit (Promega). AML12 and BNL CL.2 cells were also obtained from the American Type Culture Collection. The luminescence signal was measured using an […] M PLEX plate reader (Tecan) and the Tecan i-control software (v3.9.1). Sodium oleate (Selleckchem) was dissolved in methanol and added to cells at a final concentration of 200 μM.

[1] = system: VDR, PPARα, PPARγ, ERα, ERβ, FXR, AhR, mCAR; assay: Nuclear receptor panel screening, luciferase reporter assays in HepG2 cells; assay type: cell-based; conditions: HepG2, 10 μM, 24 h
Protocol: To examine the specificity of compound 40 (and as a control compound 46) toward other nuclear receptors, we assessed their activity in activating eight critical nuclear receptors with cellular reporter assays at saturating concentrations (10 μM). We chose nuclear receptors that are either known to directly or indirectly regulate metabolic processes in the liver, including vitamin D receptor (VDR), peroxisome proliferator-activated receptors α and γ (PPAR α and γ), estrogen receptor α and β (ERα and β) and farnesoid X receptor (FXR) or are relevant in drug metabolism such as aryl hydrocarbon receptor (AhR) and the mice constitutive androstane receptor (mCAR).
For nuclear receptor panel screening, the HepG2 cell line (obtained by American Type Culture Collection) was maintained in DMEM (Gibco) supplemented with 10% FBS+ 1% nonessential amino acids medium and incubated at 37 °C. Plasmids for mouse constitutive androstane receptor (mCAR) and its luciferase gene reporter construct p2B6-luc have been described in Mejdrová et al.[24] Other luciferase reporter constructs have been described in Stefela et al.[25] The transient transfection experiments were performed on 48-well format plates 24 h after cell seeding (1.1 × 10^5 per well). The Lipofectamine 3000 transfection reagent was used according to the manufacturer’s instructions. […]

AML12 cells = assay: Cell viability analysis in untransformed liver cells AML12 (CellTiter-Glo); assay type: cell-based; conditions: AML12, 5d, with 2 μM sorafenib
Protocol: (§3) To further determine the therapeutic potential of compound 40, we analyzed the effect of a combinatorial lipotoxic therapy with this agonist in untransformed liver cells. We applied the well-established untransformed liver cell lines AML12 and BNL CL.2 and subjected them to treatment with 40 in combination with sorafenib.
as §2

BNL CL.2 cells = assay: Cell viability analysis in untransformed liver cells BNL CL.2 (CellTiter-Glo); assay type: cell-based; conditions: BNL CL.2, 5d, with 2 μM sorafenib
Protocol: as §3, §2

## O=C1C(Nc2ccc(N3CCCCC3)cc2)=C(c2ccccc2)C(=O)N1Cc1ccccc1 [Compound 40, 1-Benzyl-3-phenyl-4-((4-(piperidin-1-yl)phenyl)amino)-1H-pyrrole-2,5-dione]
LXRα LBD (GST)
  EC50: 42 nM
LXRβ LBD (GST)
  EC50: 266 nM
Hep3B cells; 2 μM sorafenib ± 200 μM sodium oleate
  effect of sodium oleate on efficacy of the combination with sorafenib: strongly diminished the therapeutic efficacy
Hep3B cells; without sorafenib
  therapeutic effect on cell viability, monotherapy: did not show a significant therapeutic effect
[1]
  activation of eight other nuclear receptors: no relevant activation
AML12 cells
  sensitivity of untransformed liver cells to combination therapy (cell viability): only very low sensitivity
BNL CL.2 cells
  sensitivity of untransformed liver cells to combination therapy (cell viability): only very low sensitivity
